The results in this text go back to US20250171450A1, “NOVEL COELENTERAZINE DERIVATIVES” (National Institute of Advanced Industrial Science and …, priority 2022, published 2025).

Test [1] concerns the target T1, NanoLuc (Oplophorus gracilirostris, UniProt Q9GV45, A31E/A60N/A81I/F95D/I117V/K70R/L54V/L99Q/M102K/N193R/P142E/Q151K/Q38R/Q45L/V71I/Y165I).
T1 construct: host or cells: COS-7
In words: Evaluation of luminescence brightness, NanoLuc expressed in COS-7 cells (live cells and lysates). In kind it is cell-based. As to conditions: COS-7 live cells and lysates (FIGS. 10, 11); 100 μM diluted luminescent substrate solution. On the procedure: (§1) For luminescence measurements, the IVIS Imaging System purchased from PerkinElmer (old name: Caliper Life Sciences) was used.
(§2) As live cells expressing luminescent enzymes, COS-7 cells derived from the kidney of an African green monkey were used, and the evaluations were also conducted with the lysates produced by the lysis of these live cells.
(§3) The COS-7 cells derived from the kidney of the African green monkey were seeded in a 6-well microplate and were cultured in a CO2 incubator until 70% of the bottom area was covered by the cells. Using TransIT-LT1 reagent (Mirus), the plasmid encoding each of the following marine bioluminescent enzymes was transiently expressed in cells in each well.
(§4) After this lipofection, the cells were cultured in a CO2 incubator for one day. The cells were then subcultured into a 96-well microplate and further incubated for one day.
(§5) The wells with cells transfected with the same plasmid were conceptually divided into two, where one was used for lysate experiments and the other for live cell experiments. For the lysate, first, the cell medium was removed from the 96-well microplate, and then 40 μL of cell lysis reagent (lysate) available from Promega K. K. was injected into each well and the plate was incubated for 15 minutes. For the live cell experiments, after the cell medium was completely removed, the microplate was immediately sealed to prevent the sample evaporation until the luminescence measurements.
(§6) Each luminescent substrate was first dissolved in methanol (PEG400, 25%) to 5 mM (stock solution), which was further diluted with phosphate-buffered saline (PBS) to 100 μM (this solution is hereinafter referred to as diluted luminescent substrate solution). This “diluted luminescent substrate solution” was dispensed in advance into each empty well of a 96-well microplate. […] The bioluminescence brightness from the 96-well black frame microplate was measured, and analyzed using the dedicated software Living Image ver. […]

The test system of test [2] is ALuc16, ALuc47, RLuc8.6SG, NanoLuc. In words: Enzyme specificity from luminescence brightness across the luminescent enzymes. In kind it is cell-based. As to conditions: comparison of luminescence among ALuc16, ALuc47, RLuc8.6SG. On the procedure: as §1, §2, §3, §4
The wells with cells transfected with the same plasmid were conceptually divided into two, where one was used for lysate experiments and the other for live cell experiments. […] For the live cell experiments, after the cell medium was completely removed, the microplate was immediately sealed to prevent the sample evaporation until the luminescence measurements. […]

Test [3] has as its system Renilla luciferase 8.6-535SG (RLuc8.6SG). Description: Evaluation of luminescence brightness, RLuc8.6SG expressed in COS-7 cells (live cells and lysates). Type of test: cell-based, Renilla reniformis. As to conditions: COS-7 live cells and lysates (FIGS. 7, 8); 100 μM diluted luminescent substrate solution. On the procedure:
as §1, §2, §3, §4, §5, §6

Test [4] has as its system ALuc16. Description: Evaluation of luminescence brightness, ALuc16 expressed in COS-7 cells (live cells and lysates). In kind it is cell-based, luminescent plankton. Particulars: COS-7 live cells and lysates (FIGS. 1, 2); 100 μM diluted luminescent substrate solution. On the procedure:
as §1, §2, §3, §4, §5, §6

The subject of test [5] is ALuc47. In words: Evaluation of luminescence brightness, ALuc47 expressed in COS-7 cells (live cells and lysates). Particulars: 100 μM diluted luminescent substrate solution. In kind it is cell-based, luminescent plankton. How it is done: as §1, §2, §3, §4, §5, §6
Test [6] concerns the target T1, NanoLuc. Description: Evaluation of bioluminescence spectrum, NanoLuc lysate. As to conditions: COS-7 lysate (FIG. 12). In kind it is biochemical. How it is done: Measurements were conducted using the luminescence spectrum device AB-1850 available from ATTO Corporation.
The measured spectra were obtained with a measurement parameter-tuned detector.
The COS-7 cells were seeded in a 6-well microplate and were cultured in a CO2 incubator until 70% of the bottom area was covered by the cells. Using TransIT-LT1 reagent (Mirus), the plasmid encoding each of the following marine bioluminescent enzymes was transiently expressed in cells in each well.
After this lipofection, the cells were cultured in a CO2 incubator for one day. After the cell medium was completely removed from the 6-well microplate, 200 μL of cell lysis reagent (lysate) available from Promega K. K. was added to each well and the microplate was incubated at room temperature for 15 minutes.
Twenty microliters of this lysate were dispensed into each PCR tube, and 20 μL of the 100 μM diluted luminescent substrate solution was added at the time of luminescence brightness evaluation. The PCR tubes were immediately placed in a spectrophotometer (AB-1850, ATTO Corporation), and the bioluminescence spectrum was measured in the high-sensitivity mode with integration modes of 0.5 seconds, 5 seconds, 10 seconds, and 30 seconds. […]

Setting [7] is: COS-7 live cells and lysates (FIGS. 4, 5).

T1 sequence (Q9GV45 28-196 with tags or gaps with the stated changes limits assumed): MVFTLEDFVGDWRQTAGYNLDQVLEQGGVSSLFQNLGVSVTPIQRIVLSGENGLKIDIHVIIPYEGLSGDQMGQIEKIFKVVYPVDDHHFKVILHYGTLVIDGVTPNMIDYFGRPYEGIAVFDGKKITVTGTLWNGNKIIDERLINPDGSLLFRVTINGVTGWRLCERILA

On to `O=c1c(Cc2ccc(O)cc2)nc2c(Cc3ccccc3)[nH]c(-c3ccc4c(c3)OCCO4)cn1-2` [structural formula (1-1)], for which the “luminescence for NanoLuc” value in test [1] is reported as “no luminescence activity”. For the same molecule, the enzyme specificity result in test [2] is given as “enzyme specificity for ALuc16”. In test [3], the “luminescence for RLuc8.6SG” value was “slight luminescence”. For the same molecule, the “luminescence for ALuc16” value in test [4] is “high luminescence at high brightness”. Also, in test [5] (setting [7]), the “luminescence for ALuc47” value is recorded as “slight luminescence”.

As for `O=c1c(Cc2ccc(O)cc2)nc2c(Sc3ccccc3)[nH]c(-c3ccc(O)cc3)cn1-2` [structural formula (2-1)], in test [1], the “luminescence for NanoLuc” value is listed as “luminescence activity”. Moreover, the “luminescence spectral peak for NanoLuc” value in test [6] is listed as 507 nm. The “luminescence for RLuc8.6SG” value in test [3] is given as “luminescence activity”. Besides, the “luminescence for ALuc16” value in test [4] is on record as “luminescence activity”. Moreover, the “luminescence for ALuc47” value in test [5] (setting [7]) was “also showed luminescence”.

As for `O=c1c(Cc2ccc(O)cc2)nc2c(Sc3ccc(F)cc3)[nH]c(-c3ccc(O)cc3)cn1-2` [structural formula (2-2)], the “luminescence for NanoLuc” value in test [1] is listed as “slight luminescence”. Further, in test [3], the “luminescence for RLuc8.6SG” value was “luminescence activity”. Moreover, the “luminescence for ALuc16” value in test [4] is recorded as “luminescence activity”. In addition, in test [5] (COS-7 live cells (FIG. 4 only cited)), the “luminescence for ALuc47” value was “slight luminescence”.
